Entries after “also recorded” stand apart in the source; their conditions may differ. Where two headings read alike, the source gives them in different places.
Tests used:
[1] = Enzymatic kinetics in vitro, rat liver homogenate; type: in vitro ADME; settings: 37 °C, 30 min, 5–200 μM Cbz-dFdC
Description: (§1) The SD rats without any treatment were sacrificed after adapting to the environment. Blank blood, the liver, the kidney, and the intestine were collected and treated as described in Section 4.4. Part of the homogenate was removed for centrifugation for 20 min at 9000× g at 4 °C, and the supernatant was obtained as tissue S9. The tissue homogenate and S9 were diluted to […] after the protein concentration was determined by the BCA kit (Abcam, Cambridge, MA, USA). Each matrix consisted of 45 uL of the matrix mixed with 5 uL of the drug dissolved in normal saline solution for about 3 min, followed by incubation at 37 °C in a water bath. Then, acetonitrile containing the internal standard was added to terminate the reaction. Human tissue S9 and human CES1 recombinase purchased from the Ruid Liver Disease Research Co., Ltd. (Shanghai, China) were incubated under the same conditions. An enzyme kinetic study was obtained from the matrix following incubation at 37 °C for 30 min with 5, 10, 20, 50, 100, or 200 μM of Cbz-dFdC. We estimated the parameters and simulated curves according to the Eadie–Hofstee method.

[2] = Enzymatic kinetics in vitro, rat liver S9; type: in vitro ADME; settings: 37 °C, 5–200 μM Cbz-dFdC
Description: as §1

[3] = Enzymatic kinetics in vitro, rat kidney S9; type: in vitro ADME; settings: 37 °C, 5–200 μM Cbz-dFdC
Description: as §1

[4] = Incubation in rat intestine homogenate and S9; type: in vitro ADME
Description: as §1

human HepG2 cell line = assay: CCK-8 tumor cell growth inhibition assay; type: cell-based; settings: HepG2, CCK-8, concentration-dependent
Description: The cells were cultured on a 96-well plate for 4 h for each well. Then, dimethyl sulfoxide solution containing 0.1–100 mM of Cbz-dFdC and dFdC was diluted 1000 times with the medium before administration. A total of 200 uL of medium containing Cbz-dFdC and dFdC was added per well (n = 6). The medium with drugs was discarded, and 10% CCK-8 solution was added. Then, the absorbance value was read at a wavelength of 450 nm after incubation at 37 °C, for 30 min. The drug concentration of Cbz-dFdC and dFdC in cell were determined by a previously established method.

HepG2 tumor = assay: Antitumor efficacy in vivo, HepG2 tumor-bearing mice; settings: 15 days, Cbz-dFdC i.g. 22 mg/kg/day vs dFdC i.p. 15 mg/kg/day (equimolar)
Description: A cell suspension (2 × 10^7 cells/mL) of HepG2 with 0.2 mL was subcutaneously injected into the right armpits of the mice. After the hepatocellular carcinomas were inoculated, mice bearing an overt tumor with a size of 100–200 mm^3 were randomized into the control and treatment groups. One group was injected (i.p.) with PBS as the control group, Cbz-dFdC groups were given with 22 mg/kg/day (i.g.), respectively, and the dFdC groups were given with 15 mg/kg/day (i.p.), respectively. The tumor sizes of all mice were monitored at 0 d, 3 d, 6 d, 9 d, 12 d, and 15 d after drug treatment. The tumor size was converted into tumor volume (V), which was calculated by the formula (L × W^2 × 0.52) and presented as the mean ± standard deviation, where L and W are the length and width of the tumor, respectively. The tumors were measured with a Vernier caliper until day 15, when the PBS brine-treated mice began to die, then all […] were sacrificed via nitrogen inhalation.

[5] = SD, read-out: Km, disappearance of Cbz-dFdC
[6] = SD, 30 min, read-out: Clint, disappearance of Cbz-dFdC

O=C(Nc1ccn([C@@H]2O[C@H](CO)[C@@H](O)C2(F)F)c(=O)n1)OCc1ccccc1 [Cbz-dFdC, 4-N-carbobenzoxy-gemcitabine]
Vmax, appearance of dFdC [1]: 86.8 nmol/min/mg pro
Vmax, disappearance of Cbz-dFdC [1]: 411.6 nmol/min/mg pro
Km ([1]; read-out: Km, appearance of dFdC): 96.4 µM
Km ([1]; read-out: Km, disappearance of Cbz-dFdC): 190 µM
microsomal CLint ([1]; SD, read-out: Clint, disappearance of Cbz-dFdC): 2170 µL/min/mg
Vmax, appearance of dFdC ([2]; 30 min): 49.5 nmol/min/mg pro
Vmax, disappearance of Cbz-dFdC ([2]; 30 min): 169.6 nmol/min/mg pro
Km at 30 min [2, 5]: 96.3 µM
microsomal CLint [2, 6]: 1760 µL/min/mg
Vmax, appearance of dFdC ([3]; 30 min): 50.2 nmol/min/mg pro
Vmax, disappearance of Cbz-dFdC ([3]; 30 min): 206.5 nmol/min/mg pro
Km at 30 min [3, 5]: 269 µM
microsomal CLint [3, 6]: 770 µL/min/mg
stability towards CES2 in rats ([4]; concluded from tissue-specific CES expression, rats): relatively stable in CES2
degradation in rat intestine homogenate and S9 ([4]; rat intestine homogenate and S9, dFdC not generated): essentially non-degradable
cytotoxicity / tumor cell growth inhibition (human HepG2 cell line): certain cytotoxicity; also recorded: lower than that of an equimolar dose of dFdC
antitumor effect (tumor size) (HepG2 tumor): slightly better than that of dFdC

Reference: PMC7248705, “A Pharmacokinetic and Pharmacodynamic Evaluation of the Anti-Hepatocellular Carcinoma Compound 4-N-Carbobenzoxy-gemcitabine (Cbz-dFdC)” (Molecules, 2020)
